Measurements: PubChem BioAssay (NCI)
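Five concentrations, 48 hours, 96-well plates. At the GI50, growth is halved. At the TGI there is no net growth.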

Key:
Test in all cases: growth of human tumour cells (NCI), 48 h
RPMI-8226 leukemia = system: RPMI-8226 leukemia
DU-145 prostate = system: DU-145 prostate
LOX IMVI melanoma = system: LOX IMVI melanoma
NCI-H522 lung = system: NCI-H522 lung
OVCAR-4 ovarian = system: OVCAR-4 ovarian
HT29 colon = system: HT29 colon
MDA-MB-231 breast = system: MDA-MB-231 breast
A549 NSCLC = system: A549 NSCLC
U251 CNS = system: U251 CNS
SNB-19 CNS = system: SNB-19 CNS
SN12C renal = system: SN12C renal
HS 578T breast = system: HS 578T breast
BT-549 breast = system: BT-549 breast
786-0 renal = system: 786-0 renal
OVCAR-3 ovarian = system: OVCAR-3 ovarian
SK-MEL-28 melanoma = system: SK-MEL-28 melanoma
SK-OV-3 ovarian = system: SK-OV-3 ovarian
A498 renal = system: A498 renal
SR leukemia = system: SR leukemia
PC-3 prostate = system: PC-3 prostate
NCI/ADR-RES ovarian = system: NCI/ADR-RES ovarian
HCT-15 colon = system: HCT-15 colon
COLO 205 colon = system: COLO 205 colon
OVCAR-8 ovarian = system: OVCAR-8 ovarian
KM12 colon = system: KM12 colon
SW-620 colon = system: SW-620 colon
HL-60(TB) leukemia = system: HL-60(TB) leukemia
MCF7 breast = system: MCF7 breast
EKVX NSCLC = system: EKVX NSCLC
HOP-92 NSCLC = system: HOP-92 NSCLC
SF-268 CNS = system: SF-268 CNS
CCRF-CEM leukemia = system: CCRF-CEM leukemia
RXF 393 renal = system: RXF 393 renal
K-562 leukemia = system: K-562 leukemia
IGROV1 ovarian = system: IGROV1 ovarian
UACC-257 melanoma = system: UACC-257 melanoma
ACHN renal = system: ACHN renal
T-47D breast = system: T-47D breast
NCI-H23 lung = system: NCI-H23 lung
NCI-H226 lung = system: NCI-H226 lung
SF-539 CNS = system: SF-539 CNS
HOP-62 NSCLC = system: HOP-62 NSCLC
SK-MEL-2 melanoma = system: SK-MEL-2 melanoma
M14 melanoma = system: M14 melanoma
CAKI-1 renal = system: CAKI-1 renal
SNB-75 CNS = system: SNB-75 CNS
SK-MEL-5 melanoma = system: SK-MEL-5 melanoma
MDA-MB-435 = system: MDA-MB-435
MOLT-4 leukemia = system: MOLT-4 leukemia
HCC-2998 colon = system: HCC-2998 colon
OVCAR-5 ovarian = system: OVCAR-5 ovarian
UACC-62 melanoma = system: UACC-62 melanoma
HCT-116 colon = system: HCT-116 colon
NCI-H460 lung = system: NCI-H460 lung
SF-295 CNS = system: SF-295 CNS
TK-10 renal = system: TK-10 renal
UO-31 renal = system: UO-31 renal
MALME-3M melanoma = system: MALME-3M melanoma

Which results are given for `Cn1ccnc1C(=O)/C=C/c1ccc(C(=O)Nc2ccc(F)cc2)cc1`?
GI50 (RPMI-8226 leukemia): 224 nM; TGI (RPMI-8226 leukemia): 1540 nM; GI50 (DU-145 prostate): 1610 nM; TGI (DU-145 prostate): > 50000 nM; GI50 (LOX IMVI melanoma): 520 nM; TGI (LOX IMVI melanoma): 1350 nM; GI50 (NCI-H522 lung): 1170 nM; TGI (NCI-H522 lung): 4700 nM; GI50 (OVCAR-4 ovarian): 1380 nM; TGI (OVCAR-4 ovarian): > 50000 nM; GI50 (HT29 colon): 877 nM; TGI (HT29 colon): > 50000 nM; GI50 (MDA-MB-231 breast): 1710 nM; TGI (MDA-MB-231 breast): > 50000 nM; GI50 (A549 NSCLC): 1410 nM; TGI (A549 NSCLC): > 50000 nM; GI50 (U251 CNS): 747 nM; TGI (U251 CNS): 2710 nM; GI50 (SNB-19 CNS): 1360 nM; TGI (SNB-19 CNS): 6310 nM; GI50 (SN12C renal): 1370 nM; TGI (SN12C renal): > 50000 nM; GI50 (HS 578T breast): 1660 nM; TGI (HS 578T breast): > 50000 nM; GI50 (BT-549 breast): 667 nM; TGI (BT-549 breast): 4220 nM; GI50 (786-0 renal): 1140 nM; TGI (786-0 renal): 3140 nM; GI50 (OVCAR-3 ovarian): 812 nM; TGI (OVCAR-3 ovarian): 4280 nM; GI50 (SK-MEL-28 melanoma): 1800 nM; TGI (SK-MEL-28 melanoma): 9650 nM; GI50 (SK-OV-3 ovarian): 2550 nM; TGI (SK-OV-3 ovarian): > 50000 nM; GI50 (A498 renal): 1050 nM; TGI (A498 renal): 3530 nM; GI50 (SR leukemia): 171 nM; TGI (SR leukemia): 3110 nM; GI50 (PC-3 prostate): 1250 nM; TGI (PC-3 prostate): > 50000 nM; GI50 (NCI/ADR-RES ovarian): 1250 nM; TGI (NCI/ADR-RES ovarian): > 50000 nM; GI50 (HCT-15 colon): 274 nM; TGI (HCT-15 colon): 2500 nM; GI50 (COLO 205 colon): 1470 nM; TGI (COLO 205 colon): 5420 nM; GI50 (OVCAR-8 ovarian): 1490 nM; TGI (OVCAR-8 ovarian): > 50000 nM; GI50 (KM12 colon): 481 nM; TGI (KM12 colon): 2000 nM; GI50 (SW-620 colon): 223 nM; TGI (SW-620 colon): 7970 nM; GI50 (HL-60(TB) leukemia): 933 nM; TGI (HL-60(TB) leukemia): 3120 nM; GI50 (MCF7 breast): 472 nM; TGI (MCF7 breast): > 50000 nM; GI50 (EKVX NSCLC): 2200 nM; TGI (EKVX NSCLC): 20800 nM; GI50 (HOP-92 NSCLC): 1310 nM; TGI (HOP-92 NSCLC): > 41000 nM; GI50 (SF-268 CNS): 1910 nM; TGI (SF-268 CNS): > 50000 nM; GI50 (CCRF-CEM leukemia): 853 nM; TGI (CCRF-CEM leukemia): > 50000 nM; GI50 (RXF 393 renal): 780 nM; TGI (RXF 393 renal): 1640 nM; GI50 (K-562 leukemia): 163 nM; TGI (K-562 leukemia): > 50000 nM; GI50 (IGROV1 ovarian): 1240 nM; TGI (IGROV1 ovarian): 4440 nM; GI50 (UACC-257 melanoma): 3140 nM; TGI (UACC-257 melanoma): > 50000 nM; GI50 (ACHN renal): 1010 nM; TGI (ACHN renal): 2110 nM; GI50 (T-47D breast): 1240 nM; TGI (T-47D breast): > 50000 nM; GI50 (NCI-H23 lung): 1300 nM; TGI (NCI-H23 lung): 5360 nM; GI50 (NCI-H226 lung): 1510 nM; TGI (NCI-H226 lung): > 12400 nM; GI50 (SF-539 CNS): 851 nM; TGI (SF-539 CNS): 1790 nM; GI50 (HOP-62 NSCLC): 1380 nM; TGI (HOP-62 NSCLC): > 16400 nM; GI50 (SK-MEL-2 melanoma): 5660 nM; TGI (SK-MEL-2 melanoma): 39700 nM; GI50 (M14 melanoma): 1160 nM; TGI (M14 melanoma): 3810 nM; GI50 (CAKI-1 renal): 1070 nM; TGI (CAKI-1 renal): > 50000 nM; GI50 (SNB-75 CNS): 919 nM; TGI (SNB-75 CNS): 16800 nM; GI50 (SK-MEL-5 melanoma): 1490 nM; TGI (SK-MEL-5 melanoma): 4630 nM; GI50 (MDA-MB-435): 1590 nM; TGI (MDA-MB-435): 11000 nM; GI50 (MOLT-4 leukemia): 1480 nM; TGI (MOLT-4 leukemia): > 50000 nM; GI50 (HCC-2998 colon): 915 nM; TGI (HCC-2998 colon): 2000 nM; GI50 (OVCAR-5 ovarian): 1540 nM; TGI (OVCAR-5 ovarian): 26500 nM; GI50 (UACC-62 melanoma): 1370 nM; TGI (UACC-62 melanoma): 4860 nM; GI50 (HCT-116 colon): 343 nM; TGI (HCT-116 colon): 1120 nM; GI50 (NCI-H460 lung): 1060 nM; TGI (NCI-H460 lung): 2660 nM; GI50 (SF-295 CNS): 1820 nM; TGI (SF-295 CNS): > 37100 nM; GI50 (TK-10 renal): 1510 nM; TGI (TK-10 renal): 7490 nM; GI50 (UO-31 renal): 814 nM; TGI (UO-31 renal): 2690 nM; GI50 (MALME-3M melanoma): 3270 nM; TGI (MALME-3M melanoma): > 50000 nM
